One experiment concerns the target GST-tag full length MDM2 (Homo sapiens (Human), UniProt Q00987). In words: MDM2-p53 TR-FRET Binding Assays. As to conditions: MDM2 / biotin p53 peptide. The text has this:
MDM2-p53 TR-FRET Binding Assays
Examples are listed in the following.
For orientation: TR-FRET usually uses a lanthanide donor and a delayed reading to cut background.

The subject of the next experiment is SJSA-1. In words: Cell proliferation inhibition (CCK-8) against SJSA-1. As to conditions: SJSA-1 human osteosarcoma cells, 5 days. The class given is cell-based. The protocol:
Cellular data of selected compounds against SW480 and SJSA-1 was conducted according to the following protocol.
Cells in the logarithmic growth phase were seeded into 96-well plates (Corning, 3599; 180 μL/well; 3000 cells/well for both SW480 and SJSA-1 cell lines) and cultured in an incubator (Thermo, 3111) for 24 h. Cells were then treated in triplicate by adding 20 μL/well solution containing different concentrations of the tested compounds in 5% CO2 at 37° C. for 5 days. After that, cells were treated for additional 4 h by adding 10 μL/well Cell Counting Kit-8 (CCK-8; DojinDo, CK04) solution. Finally, the absorbance was read at 450 nm with a microplate reader spectra-MAX190 (Molecular Devices, Sunnyvale, Calif.). The IC50 value was determined with SofeMax Pro, a software equipped in this reader. The cell proliferation inhibition rate was calculated as: proliferation inhibition (%)=[1-(A450 treated/A450 control)]×100%.
All the tested compounds could be dissolved in DMSO at 10^−2 M (as stock solution). […] The compounds were diluted at 9 3-fold serial concentrations beginning at the initial concentration of 10 μM (i.e., the highest final concentration to treat the cells). The detailed drug dilution protocol is: Add 5 μL stock solution (10^−2 M) into 495 μL medium, transfer 125 μL of the resulting solution (100 μM) into 250 μL medium, and repeat this till the 9th resulting concentration of 15.2 nM. Pipet 20 μL of each drug dilution into cell plates.

Sequence of GST-tag full length MDM2 (Q00987 whole entry): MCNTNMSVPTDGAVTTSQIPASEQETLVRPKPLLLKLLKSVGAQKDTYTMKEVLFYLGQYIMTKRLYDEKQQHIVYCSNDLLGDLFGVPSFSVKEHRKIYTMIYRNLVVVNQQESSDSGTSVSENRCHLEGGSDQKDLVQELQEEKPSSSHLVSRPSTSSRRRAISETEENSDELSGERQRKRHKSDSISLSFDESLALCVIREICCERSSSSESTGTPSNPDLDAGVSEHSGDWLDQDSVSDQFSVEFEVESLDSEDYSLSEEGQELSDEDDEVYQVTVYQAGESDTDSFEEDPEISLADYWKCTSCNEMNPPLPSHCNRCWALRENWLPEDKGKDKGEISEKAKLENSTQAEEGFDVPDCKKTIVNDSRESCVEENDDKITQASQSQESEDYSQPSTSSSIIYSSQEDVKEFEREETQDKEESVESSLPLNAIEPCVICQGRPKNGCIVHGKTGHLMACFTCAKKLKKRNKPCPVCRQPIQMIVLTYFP

One may read the IC50 as the concentration at which inhibition is half-maximal. Take `COc1cc(C(=O)O)ccc1NC(=O)[C@@H]1N[C@@H](C[C@H](C)C(F)(F)F)[C@@]2(C(=O)Nc3cc(Cl)ccc32)[C@H]1c1cccc(Cl)c1F` (racemic) [Example 10, 4-[[(2′R,3R,3′S,5′S)-6-chloro-3′-(3-chloro-2-fluoro-phenyl)-2-oxo-5′-[(2S)-3,3,3-trifluoro-2-methyl-propyl]spiro[indoline-3,4′-pyrrolidine]-2′-carbonyl]amino]-3-methoxy-benzoic acid]: the IC50 at GST-tag full length MDM2 was at most 7.2 nM; in the experiment on SJSA-1 (Homo sapiens, SJSA-1, 120 h), at most 71 nM.
As to `COc1cc(C(=O)O)ccc1NC(=O)[C@@H]1N[C@@H](C[C@@H](C)C(F)(F)F)[C@@]2(C(=O)Nc3cc(Cl)ccc32)[C@H]1c1cccc(Cl)c1F` (racemic) [Example 11, 4-[[(2′R,3R,3′S,5′S)-6-chloro-3′-(3-chloro-2-fluoro-phenyl)-2-oxo-5′-[(2R)-3,3,3-trifluoro-2-methyl-propyl]spiro[indoline-3,4′-pyrrolidine]-2′-carbonyl]amino]-3-methoxy-benzoic acid], the IC50 at GST-tag full length MDM2 was at most 7.2 nM; with SJSA-1 (Homo sapiens, SJSA-1, 120 h), at most 71 nM.
For `COc1cc(C(N)=O)ccc1NC(=O)[C@@H]1N[C@@H](C[C@H](C)C(F)(F)F)[C@@]2(C(=O)Nc3cc(Cl)ccc32)[C@H]1c1cccc(Cl)c1F` (racemic) [Example 12, (2′R,3R,3′S,5′S)-N-(4-carbamoyl-2-methoxy-phenyl)-6-chloro-3′-(3-chloro-2-fluoro-phenyl)-2-oxo-5′-[(2S)-3,3,3-trifluoro-2-methyl-propyl]spiro[indoline-3,4′-pyrrolidine]-2′-carboxamide], in that order: at most 7.2 nM and at most 71 nM.
As for `COc1cc(C(N)=O)ccc1NC(=O)[C@@H]1N[C@@H](C[C@@H](C)C(F)(F)F)[C@@]2(C(=O)Nc3cc(Cl)ccc32)[C@H]1c1cccc(Cl)c1F` (racemic) [Example 13, (2′R,3R,3′S,5′S)-N-(4-carbamoyl-2-methoxy-phenyl)-6-chloro-3′-(3-chloro-2-fluoro-phenyl)-2-oxo-5′-[(2R)-3,3,3-trifluoro-2-methyl-propyl]spiro[indoline-3,4′-pyrrolidine]-2′-carboxamide], the IC50 at GST-tag full length MDM2 was at most 7.2 nM; in the experiment with SJSA-1 (Homo sapiens, SJSA-1, 120 h), at most 71 nM.
As for `COc1cc(C(=O)O)ccc1NC(=O)[C@@H]1N[C@@H](CC(C)(C)CF)[C@@]2(C(=O)Nc3cc(Cl)ccc32)C1c1cccc(Cl)c1F` (mixture of isomers) [Example 19, 4-[(2′R,3R,3′S,5′S)-6-chloro-3′-(3-chloro-2-fluoro-phenyl)-5′-(3-fluoro-2,2-dimethyl-propyl)-2-oxo-spiro[indoline-3,4′-pyrrolidine]-2′-carbonyl]amino-3-methoxy-benzoic acid], the IC50 on GST-tag full length MDM2 was at most 3.6 nM; in the experiment on SJSA-1 (Homo sapiens, SJSA-1, 120 h), at most 71 nM.
For `COc1cc(C(N)=O)ccc1NC(=O)[C@@H]1N[C@@H](CC(C)(C)CF)[C@@]2(C(=O)Nc3cc(Cl)ccc32)C1c1cccc(Cl)c1F` (mixture of isomers) [Example 20, (4-carbamoyl-2-methoxy-phenyl) (2′R,3R,3′S,5′S)-6-chloro-3′-(3-chloro-2-fluoro-phenyl)-5′-(3-fluoro-2,2-dimethyl-propyl)-2-oxo-spiro[indoline-3,4′-pyrrolidine]-2′-carboxamide], the IC50 is at most 3.6 nM at GST-tag full length MDM2 and at most 71 nM in the experiment with SJSA-1 (Homo sapiens, SJSA-1, 120 h).
For `COc1cc(C(N)=O)ccc1NC(=O)[C@@H]1N[C@@H](CC(C)(C)CF)[C@@]2(C(=O)Nc3cc(Cl)ccc32)C1c1cccc(Cl)c1F` (single isomer, unassigned) [Example 22], in that order: at most 3.6 nM and at most 20 nM.
For `CCOC(=O)c1ccc(NC(=O)[C@@H]2N[C@@H](C[C@H](C)C(F)(F)F)[C@@]3(C(=O)Nc4cc(Cl)ccc43)[C@H]2c2cccc(Cl)c2F)c(OC)c1` [Example 9b, ethyl 4-[[(2′R,3R,3′S,5′S)-6-chloro-3′-(3-chloro-2-fluoro-phenyl)-2-oxo-5′-[(2S)-3,3,3-trifluoro-2-methyl-propyl]spiro[indoline-3,4′-pyrrolidine]-2′-carbonyl]amino]-3-methoxy-benzoate], in the experiment with SJSA-1 (Homo sapiens, SJSA-1, 120 h), the IC50 was in the range of 71 to 550 nM.
For the compound `COc1cc(C(=O)O)ccc1NC(=O)[C@@H]1N[C@@H](CC(C)(C)CF)[C@@]2(C(=O)Nc3cc(Cl)ccc32)[C@H]1c1cccc(Cl)c1F` [Example 21, 4-[(2′R,3R,3′S,5′S)-6-chloro-3′-(3-chloro-2-fluoro-phenyl)-5′-(3-fluoro-2,2-dimethyl-propyl)-2-oxo-spiro[indoline-3,4′-pyrrolidine]-2′-carbonyl]amino-3-methoxy-benzoic acid], the IC50 on GST-tag full length MDM2 is at most 3.6 nM; with SJSA-1 (Homo sapiens, SJSA-1, 120 h), at most 20 nM.
Regarding `CCOC(=O)c1ccc(NC(=O)[C@@H]2N[C@@H](C[C@@H](C)C(F)(F)F)[C@@]3(C(=O)Nc4cc(Cl)ccc43)[C@H]2c2cccc(Cl)c2F)c(OC)c1` [Example 26, ethyl-4-[[(2′R,3′R,3′S,5′S)-6-chloro-3′(3-chloro-2-fluoro-phenyl)-2-oxo-5′-[(2R)-3,3,3-trifluoro-2-methyl-propyl]spiro[indoline-2,4′-pyrrolidine]-2′-carbonyl]amino]-3-methoxy-benzoate], the IC50 at GST-tag full length MDM2 is at most 7.2 nM; in the experiment with SJSA-1 it was at most 500 nM.
For `COc1cc(C(=O)O)ccc1NC(=O)[C@@H]1N[C@@H](C[C@@H](C)C(F)(F)F)[C@@]2(C(=O)Nc3cc(Cl)ccc32)[C@H]1c1cccc(Cl)c1F` [Example 27, 4-[[(2′R,3R,3′S,5′S)-6-chloro-3′-(3-chloro-2-fluoro-phenyl)-2-oxo-5′-[(2R)-3,3,3-trifluoro-2-methyl-propyl]spiro[indoline-3,4′-pyrrolidine]-2′-carbonyl]amino]-3-methoxy-benzoic acid], the IC50 is at most 3.6 nM at GST-tag full length MDM2 and at most 20 nM in the experiment with SJSA-1 (Homo sapiens, SJSA-1, 120 h).
For `COc1cc(C(N)=O)ccc1NC(=O)[C@@H]1N[C@@H](C[C@@H](C)C(F)(F)F)[C@@]2(C(=O)Nc3cc(Cl)ccc32)[C@H]1c1cccc(Cl)c1F` [Example 28, (2′R,3R,3′S,5′S)-N-(4-carbamoyl-2-methoxy-phenyl)-6-chloro-3′-(3-chloro-2-fluoro-phenyl)-2-oxo-5′-[(2R)-3,3,3-trifluoro-2-methyl-propyl]spiro[indoline-3,4′-pyrrolidine]-2′-carboxamide], in that order: at most 3.6 nM and at most 20 nM.
Consider `COc1cc(C(=O)O)ccc1NC(=O)[C@@H]1N[C@@H](C[C@H](C)C(F)(F)F)[C@@]2(C(=O)Nc3cc(Cl)ccc32)[C@H]1c1cccc(Cl)c1F` [Example 65, 4-[[(2′R,3R,3′S,5′S)-6-chloro-3′-(3-chloro-2-fluoro-phenyl)-2-oxo-5′-[(2S)-3,3,3-trifluoro-2-methyl-propyl]spiro[indoline-3,4′-pyrrolidine]-2′-carbonyl]amino]-3-methoxy-benzoic acid], for which the IC50 on GST-tag full length MDM2 was at most 3.6 nM; with SJSA-1 (Homo sapiens, SJSA-1, 120 h), at most 20 nM.
On to `COC(=O)c1ccc(NC(=O)[C@@H]2N[C@@H](CC3(CF)CC3)C3(C(=O)Nc4cc(Cl)ccc43)[C@H]2c2cccc(Cl)c2F)c(OC)c1` (some centres unmarked) [Example 73, 4-{[6-chloro-4′-(3-chloro-2-fluoro-phenyl)-2′-(1-fluoromethyl-cyclopropylmethyl)-2-oxo-1,2-dihydro-spiro[indole-3,3′-pyrrolidin]e-5′-carbonyl]-amino}-3-methoxy-benzoic acid methyl ester], for which the concentration for half-maximal inhibition (IC50) on GST-tag full length MDM2 was at most 7.2 nM.
